Key:
[1] = molar enthalpy of vaporization or sublimation; details: 305.12 K; Liquid; Static calorimetry
[2] = for molar entropy: 101.33 kPa, Small (less than 1 g) adiabatic calorimetry; for vapor or sublimation pressure: Closed cell (Static) method; for Triple point temperature: Adiabatic calorimetry

C=CC(C)(C)O [2-methyl-3-buten-2-ol]
Details | molar enthalpy [kJ/mol]
[1] | 46.9

[2]
Details | molar entropy [J/K/mol] | vapor or sublimation pressure [kPa]
5 K, Crystal 2 | 0.1073 | –
10 K, Crystal 2 | 0.901 | –
15 K, Crystal 2 | 2.701 | –
20 K, Crystal 2 | 5.385 | –
25 K, Crystal 2 | 8.631 | –
30 K, Crystal 2 | 12.21 | –
35 K, Crystal 2 | 15.96 | –
40 K, Crystal 2 | 19.77 | –
45 K, Crystal 2 | 23.58 | –
50 K, Crystal 2 | 27.38 | –
60 K, Crystal 2 | 34.85 | –
70 K, Crystal 2 | 42.16 | –
80 K, Crystal 2 | 49.35 | –
88.1 K, Crystal 1 | 57.03 | –
88.1 K, Crystal 2 | 55.1 | –
90 K, Crystal 1 | 58.35 | –
100 K, Crystal 1 | 65.19 | –
110 K, Crystal 1 | 71.91 | –
120 K, Crystal 1 | 78.52 | –
130 K, Crystal 1 | 85.1 | –
140 K, Crystal 1 | 91.7 | –
150 K, Crystal 1 | 98.37 | –
160 K, Crystal 1 | 105.2 | –
170 K, Crystal 1 | 112.2 | –
180 K, Crystal 1 | 119.4 | –
190 K, Crystal 1 | 126.8 | –
200 K, Crystal 1 | 134.3 | –
210 K, Crystal 1 | 141.9 | –
220 K, Crystal 1 | 149.7 | –
230 K, Crystal 1 | 157.5 | –
240 K, Crystal 1 | 165.4 | –
245.03 K, Crystal 1 | 169.4 | –
245.03 K, Liquid | 190.6 | –
250 K, Liquid | 194.6 | –
260 K, Liquid | 202.4 | –
270 K, Liquid | 210.3 | –
273.15 K, Liquid | 212.8 | –
279.12 K, Liquid | – | 0.7477
279.82 K, Liquid | – | 0.7934
280 K, Liquid | 218.2 | –
280.58 K, Liquid | – | 0.8399
280.94 K, Liquid | – | 0.8608
281.64 K, Liquid | – | 0.9104
283.31 K, Liquid | – | 1.026
283.94 K, Liquid | – | 1.075
285.82 K, Liquid | – | 1.23
286.31 K, Liquid | – | 1.271
288.03 K, Liquid | – | 1.447
288.63 K, Liquid | – | 1.504
290 K, Liquid | 226.1 | –
291.06 K, Liquid | – | 1.787
291.09 K, Liquid | – | 1.78
293.17 K, Liquid | – | 2.061
293.35 K, Liquid | – | 2.084
295.88 K, Liquid | – | 2.467
295.92 K, Liquid | – | 2.466
298.02 K, Liquid | – | 2.863
298.15 K, Liquid | 232.6 | –
298.84 K, Liquid | – | 2.995
300 K, Liquid | 234.1 | –
301.36 K, Liquid | – | 3.534
301.37 K, Liquid | – | 3.532
303.03 K, Liquid | – | 3.938
303.4 K, Liquid | – | 4.006
306.13 K, Liquid | – | 4.784
306.16 K, Liquid | – | 4.776
307.86 K, Liquid | – | 5.284
308.18 K, Liquid | – | 5.405
310 K, Liquid | 242 | –
311.01 K, Liquid | – | 6.393
311.02 K, Liquid | – | 6.405
312.7 K, Liquid | – | 7.049
313.18 K, Liquid | – | 7.252
313.25 K, Liquid | – | 7.27
315.8 K, Liquid | – | 8.467
315.81 K, Liquid | – | 8.457
315.98 K, Liquid | – | 8.484
318.16 K, Liquid | – | 9.605
320 K, Liquid | 250 | –
320.59 K, Liquid | – | 11.11
320.62 K, Liquid | – | 11.02
320.82 K, Liquid | – | 11.12
322.89 K, Liquid | – | 12.51
322.94 K, Liquid | – | 12.48
325.36 K, Liquid | – | 14.31
325.39 K, Liquid | – | 14.24
325.66 K, Liquid | – | 14.41
328.07 K, Liquid | – | 16.34
330 K, Liquid | 257.9 | –
340 K, Liquid | 265.7 | –
350 K, Liquid | 273.5 | –
360 K, Liquid | 281.1 | –
370 K, Liquid | 288.5 | –

[2]
Details | Triple point temperature [K]
Crystal 1 | 245.03
Crystal 2 | 88.1
